Patent US5736523A, “Antineoplastic heteronapthoquinones” (Biochem Pharma Inc., priority 1995, dated 1998)
Like-named read-outs stand apart in the source and are kept apart here.

Experiments:
Format in all cases: cell-based, human
[1] = test system: SKOV3 (Ovarian adenocarcinoma); assay: In vitro cytotoxicity, microculture tetrazolium (MTT) assay, SKOV3; conditions: read-out: IC50
Description: (§1) In Vitro Cytotoxicity--Microculture Tetrazolium Assay
(§2) The microculture tetrazolium assay was used to test in vitro cytotoxicity. This assay is described in Plumb, J. A. et al., 1989 Cancer Research 49, 4435-4440, which is herein incorporated by reference. The cytotoxicity of compounds towards tumor cells is measured in vitro using the assay. This assay method is based upon the ability of live, but not dead cells to reduce the yellow water soluble dye 3-(4;5-dimethylthiazol-2-yl)-2,5-diphenyltetrazolium bromide (MTT) to its water insoluble purple formazan product.
(§3) Human Tumor Cell lines, used were:
SKOV3 (Ovarian adenocarcinoma)--provided by Dr. V. Ling,
(§4) The cells were maintained in exponential growth in culture in minimal essential media (MEM) supplemented with non-essential amino acids, and containing 15% (v/v) fetal bovine serum, 5 mM L-glutamine, 1 mM sodium pyruvate, and 0.1 U/ml insulin. All cell lines were grown at 37° C. in an atmosphere of 5% CO2 in air.
(§5) Test compounds: 20 mM in DMSO and diluted to a final concentration of 200 μM in culture medium before use.
(§6) The following is the generic description of the assay method. It should be noted that although the conditions described work well with the cells listed above, the initial plating density and the MTT concentration used should be verified for each new cell line used to test compounds.
(§7) For each assay, doxorubicin is included as an inter-assay standard. This allows us to monitor the behaviour of the assay in general, and in particular, to check that the SKVLB line has maintained its resistant phenotype.
(§8) The plate layout is done in the following manner: The assays are carried out in 96-well (8 well×12 well) microtiter plates. Serial dilutions of the compound are tested along the length of the plate. A 1:3 serial dilution of compound in culture medium covers a concentration range from 100 μM to 1.7 nM. Each concentration of compound is tested in quadruplet, allowing two compounds to be tested per plate. Wells containing no cells (blank) and cells with no test compound (control) are included on each plate.
(§9) Cells are plated out in 100 μl of culture medium in the microtiter plates at a density of around 1,500-4,000 cells per well. The plates are incubated overnight to allow the cells to become adherent after which the test compound is added (100 μl of appropriate dilution per well). The cells are incubated with test compound at 37° C. for 48 h after which the compound is replaced with fresh medium. After a further 48 h incubation at 37° C., 50 μl of MTT solution (2 mg/ml) is added to each well. The plates are incubated in the dark for 4 h at 37° C. after which the medium is removed. The MTT formazan product is extracted from the cells by the addition of 200 μl DMSO followed by 50 μl of Sorensen's buffer. The plates are shaken briefly and the absorbance at 570 nm is read using a Molecular Devices UV max plate reader. Curves are fit to the MTT assay data using a four parameter logistic equation, and the data are normalized to fit a 0% to 100% survival scale.

[2] = test system: Lox (Melanoma); assay: In vitro cytotoxicity, microculture tetrazolium (MTT) assay, Lox; conditions: read-out: IC50
Description: as §1, §2, §3
Lox (Melanoma)--Southern Research Institute.
as §4, §5, §6, §7, §8, §9

[3] = test system: SKVLB (Ovarian; multidrug resistant); assay: In vitro cytotoxicity, microculture tetrazolium (MTT) assay, SKVLB; conditions: for IC50: SKVLB, multidrug resistant, read-out: IC50; for VLB/OV3: ratio SKVLB / SKOV3
How it was run: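 Multidrug-resistant ovarian SKVLB cells exposed 48 h at 37 °C to 1:3 serial dilutions (100 μM–1.7 nM), then 48 h in fresh medium. MTT reduction read at 570 nm after DMSO extraction; four-parameter logistic fit normalized to 0–100% survival.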

[4] = test system: T47D (Ductal carcinoma of breast); assay: In vitro cytotoxicity, microculture tetrazolium (MTT) assay, T47D; conditions: read-out: IC50
Description: as §1, §2, §3
T47D (Ductal carcinoma of breast)--ATCC catalog #HTB-133.
as §4, §5, §6, §7, §8, §9

[5] = test system: HT 29 (Colon adenocarcinoma); assay: In vitro cytotoxicity, microculture tetrazolium (MTT) assay, HT 29; conditions: read-out: IC50
Description: as §1, §2, §3
HT 29 (Colon adenocarcinoma) ATCC catalog #HTB-38.
as §4, §5, §6, §7, §8, §9

Molecule | IC50 ([1]; Homo sapiens, SK-OV-3, SKOV3) [nM] | IC50 ([2]; Homo sapiens) [nM] | IC50 ([3]; Homo sapiens) [nM] | VLB/OV3 [3] | IC50 ([4]; Homo sapiens) [nM] | IC50 ([5]; Homo sapiens, HT-29, HT29) [nM] | IC50 ([1]; SKOV3) [nM] | IC50 [2] [nM] | IC50 [3] [nM] | IC50 [4] [nM] | IC50 ([5]; HT29) [nM]
C=CC[C@@H]1CC2=C(C(=O)c3ccccc3C2=O)[C@@H](O[C@H]2C[C@H](NC(=O)C(F)(F)F)[C@H](O)[C@H](C)O2)O1 (mixture of isomers) [BCH2031, (1'S,1S,3S) and (1'S,1-R,3-R)-3-([2',3',6'-trideoxy-3'-trifluoroacetamido-4'-hydroxy-L-lyhohexopyranose]-5,10-dioxo-3,4,5,10-tetrahydronaphtho-[2,3-c]-pyran-3-yl)-propene] | 6000 | 2800 | 18000 | 3 | 16000 | 8500 |  |  |  |  | 
CC(NC(=O)C(F)(F)F)[C@H]1CC2=C(C(=O)c3ccccc3C2=O)[C@H](O[C@H]2C[C@H](O)[C@H](O)[C@H](C)O2)O1 (stereo partly drawn) [BCH2018, (1'S,1S,3R)-3-(trifluoroacetamidoethyl)-5,10-dioxo-1-(2',3',6'-trideoxy-3',4'-dihydroxy-L-lyxohexopyranose)-3,4,5,10-tetrahydro-1H-naphtho-[2,3-c]-pyran] | 3110 | 2380 | 17700 | 5.69 | 8560 | 14200 |  |  |  |  | 
CC(=O)[C@H]1CC2=C(C(=O)c3ccccc3C2=O)[C@H](O[C@H]2C[C@H](NC(=O)C(F)(F)F)[C@H](OC(=O)CBr)[C@H](C)O2)O1 [BCH2105, (1'-S,1-S,3-R)-methyl-(1-[2',3',4',6' tetradeoxy-3'-trifluoroacetamido-4'-O-(2-bromo-acetyl)-L-lyxopyranose]-5,10-dioxo-3,4,5,10 tetrahydronaphtho-[2,3-c]pyran-3-yl) ketone] |  |  |  | 123 |  |  | 3 | 25 | 370 | 19 | 6.9
C=CCC1CC2=C(C(=O)c3ccccc3C2=O)C(OC2CC(NC(=O)C(F)(F)F)C(O)C(C)O2)O1 (stereo not drawn) [BCH1648] |  |  |  | 6.07 |  |  | 51.9 | 138 | 315 | 360 | 309
CC(=O)C1CC2=C(C(=O)c3ccccc3C2=O)C(OC2CC(NC(=O)C(F)(F)F)C(NC(=O)C(F)(F)F)C(C)O2)O1 [BCH2104, (1R,3S,1'S) and (1S,3R,1'S)-Methyl-(1-[2',3',4',6'-tetradeoxy-3',4'-bis-trifluoroacetamido-L-arabinohexopyranose]-5,10-dioxo-3,4,5,10-tetrahydronaphthaleno-[2,3-c]pyran-3-yl) ketone] |  |  |  | 5.05 |  |  | 210 | 240 | 1100 | 613 | 171
CC(=O)C1CC2=C(C(=O)c3ccccc3C2=O)C(OC2CC(NC(=O)C(F)(F)F)C(NC(=O)C(F)(F)F)C(C)O2)O1 [BCH2102, (1R,3S,1'S) and (1S,3R,1'S)-Methyl-(1-[2',3',4',6'-tetradeoxy-3',4'-bis-trifluoroacetamido-L-arabinohexopyranose]-5,10-dioxo-3,4,5,10-tetrahydronaphthaleno-[2,3-c]pyran-3-yl) ketone] |  |  |  | 5.65 |  |  | 130 | 186 | 723 | 300 | 150
CC(=O)[C@@H]1CC2=C(C(=O)c3ccccc3C2=O)[C@H](OC2CCC(NC(=O)N(CCCl)N=O)CC2)O1 (mixture of isomers) [BCH2114, (1R,3S) and (1S,3R)-3-aceto-5,10-dioxo-1 (4-chloroethylnitrosoureido cyclohexyl-oxy)-3,4,5,10-tetrahydro-1H-naphtho-(2,3-c)-pyran] |  |  |  | 4.32 |  |  | 472 | 373 | 2040 | 655 | 257
CC(=O)C1CC2=C(C(=O)c3ccccc3C2=O)C(O[C@H]2C[C@H](O)[C@H](O)[C@H](C)O2)O1 (mixture of isomers) [BCH2117, (1'S,1S,3R) and (1'S,1R,3S)-methyl-(1-[dideoxy-2',6'-dihydroxy-3',4'-L-lyxohexopyranose]-5,10-dioxo-3,4,5,10-tetrahydronaphtho-[2,3-c]-pyran-3-yl) ketone] |  |  |  | 35.13 |  |  | 9.5 | 73 | 332 | 37.4 | 30
Methyl-(6-hydroxy-5,10-dioxo-3,4,5,10-tetrahydronaphtho-[2,3-c]-pyran-3-yl)ketone and methyl-(9-hydroxy-5,10-dioxo-3,4,5,10-tetrahydronaphtho-[2,3-c]-pyran-3-yl) ketone [BCH2062] |  |  |  | 1.04 |  |  | 810 | 354 | 842 | 776 | 1140
C=CC[C@H]1CC2=C(C(=O)c3ccccc3C2=O)[C@@H](OC2C[C@H](NC(=O)C(F)(F)F)[C@H](O)[C@H](C)O2)O1 (stereo partly drawn) [BCH1649, (1'-S,1-R,3-S)-3-([2',3',6'-trideoxy-3'-trifluoroacetamido-4'-hydroxy-L-lyhohexopyranose]-5,10-dioxo-3,4,5,10-tetrahydronaphtho-[2,3-c]-pyran-3-yl)-propene] |  |  |  | 4.17 |  |  | 110 | 217 | 459 | 380 | 331
CC(=NO)[C@@H]1CC2=C(C(=O)c3ccccc3C2=O)[C@@H](O[C@H]2C[C@H](NC(=O)C(F)(F)F)[C@H](O)[C@H](C)O2)O1 [BCH2115, (1'S,1R,3S)-3 (oximoethyl)-5,10-dioxo-1 (2,3,6-trideoxy-3-trifluoroacetamido-L-lyxohexopyranose)-3,4,5,10-tetrahydro-1H-naphtho-(2,3-c)-pyran] | 2300 | 4000 | > 100000 | > 50 | 5300 | 5600 |  |  |  |  | 
CC(=O)C1CC2=C(C(=O)c3ccccc3C2=O)C(OC[C@@H]2CCCN2C(=O)OC(C)(C)C)O1 (mixture of isomers) [BCH2067, (1S,2'S,3R) and (1R,2'S,3S)-methyl-(1-[O-N-BOC-prolinol]-5,10-dioxo-3,4,5,10-tetrahydro-1H-naphtho [2,3-C]pyran-3-yl) ketone] |  |  |  | 2 |  |  | 1200 | 1100 | 2240 | 540 | 323
(1S,2'S,3R) and (1R,2'S,3S)-methyl-(1-[O-prolinol]-3,4,5,12-tetrahydronaphtho-[2,3-C] pyran-3-yl) ketone hydrochloride salt [BCH1658] |  |  |  | 6.31 |  |  | 233 | 316 | 1470 | 494 | 661
COC1OC(C(=O)NCCCn2ccnc2)=CC2=C1C(=O)c1ccccc1C2=O (stereo not drawn) [BCH2157, (3-N-hydrochloroimidazolylpropyl)-1-methoxy-5,10-dioxo-5,10-dihydro-1H-naphtho-[2,3-c]-pyran-3-carboxamide] | 187 | 15.5 | 3390 | 18.13 | 233 | 1230 |  |  |  |  | 
CCC1CC2=C(C(=O)c3ccccc3C2=O)C(OC2CC(OC(C)=O)C(OC(C)=O)C(C)O2)O1 (mixture of isomers) [BCH1607, (1'S,1S,3S) and (1'S,1R,3R)-5,10-dioxo-3-ethyl-1-(2',3',4',6'-tetradeoxy-3',4'-diacetoxy-L-lyxohexo-pyranose)-3,4,5,10-tetrahydro-1H-naphtho [2,3-C] pyran] |  |  |  | 2.73 |  |  | 7260 | 8970 | 19800 | 14700 | 21600
